The values below are quoted from earlier work in patent US20020102237A1, “Compositions and methods for hepatitis treatment” (priority 2000, published 2002).

The series relates to hepatitis C infection.

On to interferon, for which, for the setting “chronic hepatitis C, interferon with or without Ribavirin”, the “response rate (long term efficacy)” value is “about 25%”.

alpha-interferon: the “patients responding with normalization of alanine aminotransferase (ALT)” value (hepatitis C infection, 3 million units subcutaneously three times weekly for six months) is given as “approximately 50%”. Further, where the note is “hepatitis C infection, after standard six-month therapy”, the “relapse of responders upon discontinuation of therapy” value is on record as “half of those responding relapse”.
